From patent US20220288102A1, “Compounds for Hepatitis B Treatment” (Agency for Science, Technology and Research, priority 2019, published 2022)
Entries after “also recorded” stand apart in the source; their conditions may differ.

Assays:
extracellular HBV DNA = assay: Extracellular HBV DNA (qPCR) in infected primary human hepatocytes; format: cell-based, Hepatitis B virus; conditions: HBVcc-infected primary human hepatocytes, compound treatment 3 μM
Procedure: HBV extracellular DNA was extracted from 200 μL of cell culture supernatant collected at the end of the experiment as indicated on the figure legends. DNA was extracted according to the QIAamp DNA Mini Kit (Qiagen).
(§1) FIG. 8 briefly describes an experimental model of the method to infect the cells with HBV, treatment with drugs, and subsequent analysis. The primary human hepatocytes were seeded in a 96 well plate coated with Collagen I (30 minutes at room temperature) with DMSO (1%) induction. The next day, the cells were infected with purified HBV with a multiplicity of infection (MOI) of 500 (i.e. the ratio of the infection agent (HBV) to the infection target (cell)) in media containing 4% polyethylene glycol 8000 (PEG-8000) and 1% DMSO (day 0). On the next day, the infected cells were washed vigorously to remove excess virus by washing 3 times without removing the spent media completely and treated with the test compounds at 3 μM concentration (day 1). In addition. the supernatant was collected at day 3 and the cells pulsed again with the test compounds at 3 μM concentration. At day 5, the supernatant was collected for analysis with the HBsAg ELISA and finally at day 8 cells were lysed for DNA isolation, eHBV analysis and cccDNA analysis. This allows comparison of the effects of the compounds on day 3 and day 5. Some of the cells were fixed, permeabalized and stained with antibody to HBcAg to determine HBcAg levels via IFA.

[1] = Cytotoxicity in HepG2 2.15 cells; format: cell-based; conditions: human, Hep G2 2.15 cells
Procedure: In block 205, a primary screen of the library of compounds was done in HepG2 2.15 cells to determine the inhibitory activity of HBsAg (the surface antigen of the Hepatitis B virus which indicates hepatitis B infection in patients) and parallel cytotoxicity. In block 310, the hit compounds (“HITS” or “HITs”) were determined by identifying compounds with certain criteria. […] In the preliminary screen, the compounds are typically tested at higher concentrations than expected and may lead to greater than desired cytotoxicity (>20%). For example, the compounds may be tested at 3 μM (data shown herein) or 10 μM. However, the compound was subsequently further tested in a proper dose response manner (described below) to determine whether the drug is able to elicit the antiviral response (decrease in HBsAg levels) with low cytotoxicity (i.e. <20% cytotoxicity).
From the primary high throughput screen of 151 epigenetic modulators in the SelleckChem compound library at a 3 μM concentration, 16 hit compounds were identified to have good antiviral activity resulting in high HBsAg loss (>50%) and low cytotoxicity (<20%) and the results are shown in FIG. 3.
A secondary screen of the hit compounds was done to determine the EC50 of the hit compounds. […] Some of the other compounds were determined to be less suitable. […] The MI-2 EC50 is very high and appers to be dependent on the toxic nature of the compound and was not a viable option. The percentage inhibition curve of MC1568, OF-1 and tofacitinib in FIG. 4 are close to 0 in the vertical axis and may not be readily seen in FIG. 4. It may be seen that the secondary screen is able to filter off unsuitable compounds from the primary screen.

HBsAg [2] = assay: HBsAg inhibition in HepG2 2.15 cells (primary screen and dose response, HBsAg ELISA); format: cell-based, Hepatitis B virus; conditions: for HBsAg inhibition, dose response curve / percentage inhibition curve (HBsAg): 8-point dose response in HepG2 2.15 cells starting from 30 μM; for IC50: Hepatitis B virus, HepG2.2.15, read-out: IC50 (HBsAg); for percentage inhibition curve (HBsAg): FIG. 4
Procedure: HBsAg ELISA. HBsAg ELISA was carried out as described in detail below. In brief 25 μL of the cell culture supernatant was collected at the indicated timepoints on the figure legends and was used for the HBsAg ELISA.
Procedure • 1. Coat microwells with 25 ul per well of mouse monoclonal [86C] diluted in coating buffer (6 ug per ml; 300 ul from 0.2 mg/ml stock in 10 ml of coating buffer)(150 ng/well). • 2. Seal plate and incubate overnight at 4° C. • 3. Aspirate wells and wash 3 times with 50 ul/well of wash buffer. • 4. After last wash, invert plate and blot on c-towel and spin 1000 rpm for 1 min to remove residual solution. • 5. Block plates with 75 ul/well of assay diluent. Incubate at RT for 2 hrs. • 6. Aspirate/wash as in step 3. • 7. Prepare 4000 ng/ml of active HBS Ag (Adw) full length protein in assay diluent and titrate 2 fold for 12 different decreasing concentration. Pipette 25 ul of sample and different dilutions of active HepB surface Ag (Adw) into appropriate wells. Seal plate and incubate for 2 hrs at RT. • 8. Aspirate/wash as in step 3 but with total 5 washes. • 9. Add 25 ul of working detector (Rabbit polyclonal to HBS-Biotin (4500 ng/ml)+SAv-HRP (1:1000) reagent to each well. Seal plate and incubate for 1 hr at RT. • 10. Aspirate/wash as in step 3 but for 7 washes. • 11. Add 25 ul of TMB substrate solution to each well and incubate plate for 30 minutes at RT in dark. • 12. Add 25 ul of stop solution (1N HCl) to each well, read absorbance at 450 nm within 30 minutes of stopping reaction.
In block 205, a primary screen of the library of compounds was done in HepG2 2.15 cells to determine the inhibitory activity of HBsAg (the surface antigen of the Hepatitis B virus which indicates hepatitis B infection in patients) and parallel cytotoxicity. In block 310, the hit compounds (“HITS” or “HITs”) were determined by identifying compounds with certain criteria. […] For example, the compounds may be tested at 3 μM (data shown herein) or 10 μM.
A secondary screen of the hit compounds was done to determine the EC50 of the hit compounds.

HBV in HepAD38.7 cells = assay: Secondary validation of the drug screen in HepAD38.7 cells; format: cell-based, Hepatitis B virus
Procedure: In block 215, a secondary screen was conducted to determine the EC50 values (the effective concentration to obtain 50% activity or inhibition) of the HIT compounds. In block 220, the hit compounds were tested in HEPAD38.7 HBV live infection models to determine the robustness of the hit compounds, i.e. whether the hit compounds are effective. In block 225, the novel lead compounds or scaffold structures are identified and mechanism of action (MOA) studies for target engagement were developed. In block 230, the lead compound is optimised and validated or if the compound is known but for a different non-biological use or biological target, the compound may be repurposed for the inhibition of HBV. In block 235, the efficacy of the compound was determined in animal models.
A secondary validation of the drug screen in HepAD38.7 cells and a functional gene knockdown using Lipofectamine 3000 reagent was also performed. The genes selected were the annotated targets of the selected epigenetic inhibitors.

cccDNA = cccDNA (qPCR) in infected primary human hepatocytes; format: cell-based, Hepatitis B virus; conditions: HBVcc-infected primary human hepatocytes, compound treatment 3 μM
Procedure: The DNA is isolated from the cellular lysate, purification with Plasmid safe ATP-dependent DNAse is performed to remove non-circular DNAs (relaxed circular DNA). cccDNA levels are then measure using a Taqman-probe based quantitative polymerase chain reaction.
as §1, with “Some of the cells were fixed, permeabalized and stained with antibody to HBcAg to determine HBcAg levels via IFA.” left out

HBsAg [3] = assay: HBsAg ELISA in HBV-infected primary human hepatocytes; format: cell-based, Hepatitis B virus; conditions: 3 μM
Procedure: HBV infection of PHH. Primary human hepatocytes were infected at […] in presence of 4% PEG8000 and 1% DMSO as described earlier. The samples, cell lysate for RNA and or DNA as well as cell culture supernatant were harvested at indicated timepoints on figure legends.
Procedure • 1. […] Seal plate and incubate overnight at 4° C. • 3. […] Block plates with 75 ul/well of assay diluent. Incubate at RT for 2 hrs. • 6. Aspirate/wash as in step 3. • 7.
as §1

[4] = tested on: primary human hepatocytes; assay: Cytotoxicity (CCK-8) in infected primary human hepatocytes; format: cell-based; conditions: 3 μM

Compound | IC50 [1] [µM] | HBsAg inhibition, dose response curve (HBsAg [2]) | IC50 (HBsAg [2]) [µM] | antiviral effect in HepAD38 cells (HBV in HepAD38.7 cells) | other results
Cc1cc(Nc2nc(N[C@@H](C)c3ccc(F)cc3)c(C#N)cc2F)n[nH]1 [AZ960] | 0.231 | suitable dose response curve | 0.193 | – | extracellular HBV DNA levels in the cell culture supernatant (extracellular HBV DNA): reduces extracellular HBV DNA levels more than Entecavir
COc1cc(Nc2ncc3c(n2)-c2ccc(Cl)cc2C(c2c(F)cccc2OC)=NC3)ccc1C(=O)O [Alisertib] | – | not as efficacious | – | did not show an effect | –
Cc1nc(N)sc1-c1ccnc(Nc2ccc(N3CCOCC3)cc2)n1 [CYC-116] | 1.49 | suitable dose response curve | 0.42 | significantly higher antiviral activity | cccDNA levels in the cell lysate (cccDNA): lowest measured cccDNA levels; HBsAg levels (HBsAg [3]; Day 3 and Day 5): reduces HBsAg levels more than Entecavir; also recorded: lowest HBsAg levels; extracellular HBV DNA levels in the cell culture supernatant (extracellular HBV DNA): reduces extracellular HBV DNA levels more than Entecavir; cytotoxicity level (CCK-8) [4]: higher cytotoxicity levels
C=C1[C@H](CO)[C@@H](O)C[C@@H]1n1cnc2c(=O)[nH]c(N)nc21 [Entecavir] | – | – | – | – | cytotoxicity level (CCK-8) [4]: low toxicity levels
Cn1c(/C=C/C(=O)NO)ccc1/C=C/C(=O)c1cccc(F)c1 [MC-1568] | – | – | – | – | percentage inhibition curve (HBsAg) (HBsAg [2]): ~0%
CCCc1cc2c(N3CCN(C4=NCC(C)(C)S4)CC3)ncnc2s1 [MI-2] | – | – | – | – | EC50 (HBsAg [2]; secondary screen, HepG2 2.15 cells): very high
CC(C)c1cc2c(N3CCN(C4=NCC(C)(C)S4)CC3)ncnc2s1 [MI-3] | 4.37 | suitable dose response curve | 1.12 | – | –
CCCCN(Cc1ccc(C(=O)NO)cc1)C(=O)Nc1ccccc1 [Nexturastat A] | 3.58 | suitable dose response curve | 0.98 | significantly higher antiviral activity | HBsAg levels (HBsAg [3]; Day 3 and Day 5): reduces HBsAg levels more than Entecavir
COc1cc2c(cc1NS(=O)(=O)c1ccc(Br)cc1C)n(C)c(=O)n2C [OF-1] | – | – | – | – | percentage inhibition curve (HBsAg) (HBsAg [2]): ~0%
CCS(=O)(=O)c1cccc(-c2cc(C(=O)NC3CCN(C)CC3)c(C)c3[nH]c4ncc(C)cc4c23)c1 [TAK-901] | 11 | suitable dose response curve | 0.4 | significantly higher antiviral activity | cccDNA levels in the cell lysate (cccDNA): lowest measured cccDNA levels; HBsAg levels (HBsAg [3]; Day 3 and Day 5): reduces HBsAg levels more than Entecavir; extracellular HBV DNA levels in the cell culture supernatant (extracellular HBV DNA): reduces extracellular HBV DNA levels more than Entecavir; cytotoxicity level (CCK-8) [4]: higher cytotoxicity levels
C[C@@H]1CCN(C(=O)CC#N)C[C@@H]1N(C)c1ncnc2[nH]ccc12 [Tofacitinib] | – | – | – | – | percentage inhibition curve (HBsAg) (HBsAg [2]): ~0%
CN1CCc2c(c3ccccc3n2Cc2ccc(C(=O)NO)cc2)C1.Cl [Tubastatin A HCl, Tubastatin A hydrochloride salt] | 7.21 | suitable dose response curve | 2 | significantly higher antiviral activity | HBsAg levels (HBsAg [3]; Day 3 and Day 5, hydrochloride salt): reduces HBsAg levels more than Entecavir; also recorded: lowest HBsAg levels
